Data on 2 compounds can be found in US5786137A, “Method for assaying components in an enzyme-protein substrate system” (Research Foundation of State University of New York, priority 1996, dated 1998).

Assay [1] deals with plasmin (binding to and degradation of FITC-fibrinogen). The experiment in a line: Plasmin-mediated fibrinogenolysis assay: fluorescence dequenching of FITC-fibrinogen. It is filed as biochemical. The protocol: To illustrate plasmin-mediated fibrinogenolysis into degradation products, 10 nM of plasmin was mixed for about 5 seconds in the reaction buffer containing 250 nM FITC-fibrinogen. […] The action of plasmin on FITC-fibrinogen produced an immediate large increase in fluorescence intensity (dequenching) in a plasmin-dependent manner (FIG. 4). The detection limit has been found under routine conditions to be at least 10 picomolar plasmin.
In that competition, some plasmin was able to bind fibrinogen as indicated by the initial rate of dequenching.

Assay [2] concerns fibrinogen (FITC-fibrinogen polymerized by thrombin). Particulars: 1 U/ml thrombin.
Method: Fibrinogen was labeled with FITC using a 0.1M sodium bicarbonate buffer. After stopping the reaction with hydroxylamine (0.15M final concentration), the FITC-fibrinogen was dialyzed extensively before storage. The buffer for the polymerization reaction comprised either 0.1M NaCl, 0.05M Tris-HCl, 5 mM CaCl2 ("buffer 1") or 0.3M NaCl, 0.05M Tris-HC1, 5 mM CaCl2 ("buffer 2"). Cuvettes were incubated with 10 μM bovine serum albumin for 30 minutes to minimize adsorption of substrate to the cuvette walls.
In a series of reactions to produce fibrinogen polymerization into fibrin fibers, thrombin (final concentrations ranging from 0.1 U/ml, 0.25 U/ml, 0.5 U/ml and 1 U/ml) was mixed for about 5 seconds in either buffer 1 or buffer 2 containing a dilute FITC-fibrinogen (<40 nM) solution. Polymerization was monitored by exciting the reaction mixture with blue light (488 nm) and monitoring the fluorescence emission at 515 nm using a fluorimeter.

Take `NCCCCCC(=O)O` [ε-amino caproic acid]: the “progression of fibrinogenolysis (cessation of dequenching)” value in assay [1] (addition of 10 mM ε-amino caproic acid during fibrinogenolysis) is “immediately inhibited”. Also, the inhibition of dequenching entry in assay [1] (excess ε-amino caproic acid added after plasmin-mediated fibrinogenolysis was initiated (FIG. 8)) is listed as “dose-dependent inhibition”. In addition, in assay [1] (plasmin preincubated with 10 mM ε-amino caproic acid before addition of fluorescent-labeled fibrinogen (FIG. 7)), the dequenching rate result is listed as “greatly reduced”.

For the compound Gly-Pro-Arg-Pro [GPRP], in assay [2] (100 μM GPRP added before polymerization), the thrombin-induced quenching prevented entry is on record as “Over 80%”. Also, the “rate and extent of quenching associated with polymerization” value in assay [2] (0.1, 10 and 100 μM GPRP) was “reduced in a dose-dependent manner”.
